Experiments:
[1] = system: annual bluegrass (Poa Annua); experiment: Seed/biomass effect on annual bluegrass at Day 212; type: in vivo; settings: for Biomass Dry Weight: control (none) 251
Method: (§1) In this evaluation, annual bluegrass (Poa Annua) was grown, and the compounds were applied at various growth stages of the annual bluegrass as depicted in Table Ia using a randomized complete block design of four replications with ten treatments including one untreated control. The compounds were applied using water as the carrier. The results shown in Table Ib depict control of annual bluegrass, which includes browning, necrosis, melt-down and plant death. The results shown in Table Ic depict the amount of seeds on the plants and on the ground for the various treatments.

[2] = system: annual bluegrass (Poa Annua); experiment: Percent control of annual bluegrass (browning, necrosis, melt-down, plant death); type: in vivo
Method: as §1

Structure (SMILES): CP(=O)(O)CCC(N)C(=O)O (centres unmarked) [Glufosinate-Ammonium, 2-amino-4-(hydoxymethylphosphinyl)butanoic acid]
- Seeds on Ground ([1]; application time E, control (none) 30): 34 g/5 sq ft
- Seeds on Plant ([1]; application time E, control (none) 37): 32 g/5 sq ft
- Biomass Dry Weight ([1]; application time E): 184 g/5 sq ft
- Seeds on Ground ([1]; application time E, control (none) 669): 816 seeds/0.3 g
- Seeds on Plant ([1]; application time E, control (none) 864): 1000 seeds/0.3 g
- % Control at Days After First Treatment (DAT) ([2]; 17 DAT, application time A (seedling, day 1), rate 0.375 lb/A (420)): 80%
- % Control at Days After First Treatment (DAT) ([2]; 43 DAT, application time A (seedling, day 1), rate 0.375 lb/A (420)): 80%
- % Control at Days After First Treatment (DAT) ([2]; 43 DAT, application time C (tillering, day 35), rate 0.375 lb/A (420)): 10%
- % Control at Days After First Treatment (DAT) ([2]; 77 DAT, application time A (seedling, day 1), rate 0.375 lb/A (420)): 74%
- % Control at Days After First Treatment (DAT) ([2]; 77 DAT, application time C (tillering, day 35), rate 0.375 lb/A (420)): 96%
- % Control at Days After First Treatment (DAT) ([2]; 151 DAT, application time A (seedling, day 1), rate 0.375 lb/A (420)): 33%
- % Control at Days After First Treatment (DAT) ([2]; 151 DAT, application time C (tillering, day 35), rate 0.375 lb/A (420)): 74%
- % Control at Days After First Treatment (DAT) ([2]; 151 DAT, application time E (flowering, day 136), rate 0.375 lb/A (420)): 93%
- % Control at Days After First Treatment (DAT) ([2]; 172 DAT, application time A (seedling, day 1), rate 0.375 lb/A (420)): 3%
- % Control at Days After First Treatment (DAT) ([2]; 172 DAT, application time C (tillering, day 35), rate 0.375 lb/A (420)): 45%
- % Control at Days After First Treatment (DAT) ([2]; 172 DAT, application time E (flowering, day 136), rate 0.375 lb/A (420)): 65%
- % Control at Days After First Treatment (DAT) ([2]; 204 DAT, application time A (seedling, day 1), rate 0.375 lb/A (420)): 0%
- % Control at Days After First Treatment (DAT) ([2]; 204 DAT, application time C (tillering, day 35), rate 0.375 lb/A (420)): 18%
- % Control at Days After First Treatment (DAT) ([2]; 204 DAT, application time E (flowering, day 136), rate 0.375 lb/A (420)): 8%

Structure (SMILES): CCC(=O)C1=C([O-])CC(C(=O)[O-])CC1=O.[Ca+2] (centres unmarked) [Prohexadione-Calcium, calsium 3,5-dioxo-4-(1-oxopropyl)cyclohexanecarboxylate]
- Seeds on Ground ([1]; application time F, prohexadione-calcium treatment, control (none) 30): 50 g/5 sq ft
- Seeds on Plant ([1]; application time F, prohexadione-calcium treatment, control (none) 37): 34 g/5 sq ft
- Biomass Dry Weight ([1]; application time F, prohexadione-calcium treatment): 188 g/5 sq ft
- Seeds on Ground ([1]; application time F, prohexadione-calcium treatment, control (none) 669): 583 seeds/0.3 g
- Seeds on Plant ([1]; application time F, prohexadione-calcium treatment, control (none) 864): 822 seeds/0.3 g
- % Control at Days After First Treatment (DAT) ([2]; 17 DAT, application time A (seedling, day 1), rate 0.125 lb/A (140)): 0%
- % Control at Days After First Treatment (DAT) ([2]; 17 DAT, application times A + B (seedling, days 1 and 15), rate A = 0.125 (140) + B = 0.125 (140) lb/A): 0%
- % Control at Days After First Treatment (DAT) ([2]; 43 DAT, application time A (seedling, day 1), rate 0.125 lb/A (140)): 0%
- % Control at Days After First Treatment (DAT) ([2]; 43 DAT, application time C (tillering, day 35), rate 0.125 lb/A (140)): 0%
- % Control at Days After First Treatment (DAT) ([2]; 43 DAT, application times A + B (seedling, days 1 and 15), rate A = 0.125 (140) + B = 0.125 (140) lb/A): 0%
- % Control at Days After First Treatment (DAT) ([2]; 77 DAT, application time A (seedling, day 1), rate 0.125 lb/A (140)): 0%
- % Control at Days After First Treatment (DAT) ([2]; 77 DAT, application time C (tillering, day 35), rate 0.125 lb/A (140)): 0%
- % Control at Days After First Treatment (DAT) ([2]; 77 DAT, application times A + B (seedling, days 1 and 15), rate A = 0.125 (140) + B = 0.125 (140) lb/A): 0%
- % Control at Days After First Treatment (DAT) ([2]; 77 DAT, application times C + D (tillering, days 35 and 51), rate C = 0.125 (140) + D = 0.125 (140) lb/A): 0%
- % Control at Days After First Treatment (DAT) ([2]; 151 DAT, application time A (seedling, day 1), rate 0.125 lb/A (140)): 0%
- % Control at Days After First Treatment (DAT) ([2]; 151 DAT, application time C (tillering, day 35), rate 0.125 lb/A (140)): 0%
- % Control at Days After First Treatment (DAT) ([2]; 151 DAT, application times A + B (seedling, days 1 and 15), rate A = 0.125 (140) + B = 0.125 (140) lb/A): 0%
- % Control at Days After First Treatment (DAT) ([2]; 151 DAT, application times C + D (tillering, days 35 and 51), rate C = 0.125 (140) + D = 0.125 (140) lb/A): 0%
- % Control at Days After First Treatment (DAT) ([2]; 172 DAT, application time A (seedling, day 1), rate 0.125 lb/A (140)): 0%
- % Control at Days After First Treatment (DAT) ([2]; 172 DAT, application time C (tillering, day 35), rate 0.125 lb/A (140)): 0%
- % Control at Days After First Treatment (DAT) ([2]; 172 DAT, application time F (flowering to soft dough, day 155), rate 0.250 lb/A (280)): 60%
- % Control at Days After First Treatment (DAT) ([2]; 172 DAT, application times A + B (seedling, days 1 and 15), rate A = 0.125 (140) + B = 0.125 (140) lb/A): 0%
- % Control at Days After First Treatment (DAT) ([2]; 172 DAT, application times C + D (tillering, days 35 and 51), rate C = 0.125 (140) + D = 0.125 (140) lb/A): 0%
- % Control at Days After First Treatment (DAT) ([2]; 204 DAT, application time A (seedling, day 1), rate 0.125 lb/A (140)): 0%
- % Control at Days After First Treatment (DAT) ([2]; 204 DAT, application time C (tillering, day 35), rate 0.125 lb/A (140)): 0%
- % Control at Days After First Treatment (DAT) ([2]; 204 DAT, application time F (flowering to soft dough, day 155), rate 0.250 lb/A (280)): 95%
- % Control at Days After First Treatment (DAT) ([2]; 204 DAT, application times A + B (seedling, days 1 and 15), rate A = 0.125 (140) + B = 0.125 (140) lb/A): 0%
- % Control at Days After First Treatment (DAT) ([2]; 204 DAT, application times C + D (tillering, days 35 and 51), rate C = 0.125 (140) + D = 0.125 (140) lb/A): 0%

— patent publication US6727205B2, “Plant growth regulators and methods for control and/or suppression of annual bluegrass” (BASF Aktiengesellschaft, priority 2001, dated 2004)
